mortality, percent effect (mortality or growth inhibition) and percent control (mortality, anti-feedant effect or growth inhibition) data for 16 compounds are collected here from patent publication US20260132125A1, “PESTICIDALLY ACTIVE FUSED BICYCLIC HETEROAROMATIC COMPOUNDS” (priority 2022, published 2026).

Each structure is given as a SMILES string. A value given as a limit tells only on which side of the number the result lay.

Format in all cases: in vivo
One assay relates to Chilo suppressalis. The experiment in a line: Example B1: activity against Chilo suppressalis (striped rice stemborer), artificial diet. As to conditions: for percent control (mortality, anti-feedant effect or growth inhibition) at 200 ppm: 144 h, L2 larvae, 6 days after infestation, read-out: control (at least one of mortality, anti-feedant effect, growth inhibition). Here is the method:
24-well microtiter plates with artificial diet were treated with aqueous test solutions prepared from 10′000 ppm DMSO stock solutions by pipetting. After drying, the plates were infested with L2 larvae (6-8 per well). The samples were assessed for mortality, anti-feeding effect, and growth inhibition in comparison to untreated samples 6 days after infestation. Control of Chilo suppressalis by a test sample is given when at least one of the categories mortality, anti-feedant effect, and growth inhibition is higher than the untreated sample.

The next assay relates to Plutella xylostella. Kind of assay: Example B5: activity against Plutella xylostella (diamond back moth), artificial diet, eggs. As to conditions: 192 h, 8 days after infestation, read-out: effect in at least one of the two categories (mortality or growth inhibition). How it is done: 24-well microtiter plates with artificial diet were treated with aqueous test solutions prepared from 10′000 ppm DMSO stock solutions by pipetting. After drying, Plutella eggs were pipetted through a plastic stencil onto a gel blotting paper and the plate was closed with it. The samples were assessed for mortality and growth inhibition in comparison to untreated samples 8 days after infestation. The following compounds gave an effect of at least 80% in at least one of the two categories (mortality or growth inhibition) at an application rate of 200 ppm: P1, P2, P3, P4, P5, P6, P7, P8, P9, P10, P11, P12, P13, P14, P15, P16, P17, P18, P19, P20, P21, P22, P23, P24, P25, P26, P27, P28, P29, P30, P31, P32, P33, P34, P35, P36, P37, P38, P39, P40, P41, P42, P43, P44, P45, P46, P47, P48, P49, P50, P51, P52, P53, P54, P55, P57, P58, P59, P60, P61, P62, P63, P64, P65, P66, P67, P69, P70, P71, P72, P73, P74, P75, P77, P78, P81, P82, P83.

The subject of a further assay is Spodoptera littoralis. Kind of assay: Example B6: activity against Spodoptera littoralis (Egyptian cotton leaf worm), cotton leaf discs. To be noted: foliar; for percent control (mortality, anti-feedant effect or growth inhibition) at 200 ppm: 72 h, L1 larvae, 3 days after infestation, read-out: control (at least one of mortality, anti-feedant effect, growth inhibition). How it is done:
Cotton leaf discs were placed onto agar in 24-well microtiter plates and sprayed with aqueous test solutions prepared from 10′000 ppm DMSO stock solutions. After drying the leaf discs were infested with five L1 larvae. The samples were assessed for mortality, anti-feeding effect, and growth inhibition in comparison to untreated samples 3 days after infestation. Control of Spodoptera littoralis by a test sample is given when at least one of the categories mortality, anti-feedant effect, and growth inhibition is higher than the untreated sample.

The test system of another assay is Diabrotica balteata. Kind of assay: Example B2: activity against Diabrotica balteata (corn root worm), maize sprouts. As to conditions: 96 h, L2 larvae, 4 days after infestation, read-out: effect in at least one of the two categories (mortality or growth inhibition). Here is the method: Maize sprouts placed onto an agar layer in 24-well microtiter plates were treated with aqueous test solutions prepared from 10′000 ppm DMSO stock solutions by spraying. After drying, the plates were infested with L2 larvae (6 to 10 per well). The samples were assessed for mortality and growth inhibition in comparison to untreated samples 4 days after infestation. The following compounds gave an effect of at least 80% in at least one of the two categories (mortality or growth inhibition) at an application rate of 200 ppm: P1, P2, P3, P4, P5, P7, P8, P9, P10, P11, P12, P13, P14, P15, P16, P17, P18, P19, P20, P21, P22, P23, P24, P25, P26, P27, P28, P29, P30, P31, P33, P34, P35, P36, P37, P38, P39, P40, P41, P42, P43, P45, P46, P47, P48, P49, P50, P51, P52, P53, P55, P57, P58, P59, P60, P61, P62, P63, P64, P65, P66, P67, P69, P71, P75, P81, P82, P83.

The mortality is the share of the test organisms that died. The low end stands for more survivors, the high end for fewer survivors. For the compound `C[C@H](Nc1ncnc2c(C(F)(F)F)cc(Cl)cc12)c1ncnn1-c1ncc(C#N)s1` [WO 22/268648 P10, reference compound], the mortality at 12.5 ppm in the assay with Chilo suppressalis (12.5 ppm) came out at 0%.

For `CONC(=O)c1cc(-n2ncnc2[C@H](C)Nc2ncnc3c(C(F)(F)F)cc(Cl)cc23)ncn1` [Compound P28, 6-[5-[(1S)-1-[[6-chloro-8-(trifluoromethyl)quinazolin-4-yl]amino]ethyl]-1,2,4-triazol-1-yl]-N-methoxy-pyrimidine-4-carboxamide], the percent effect (mortality or growth inhibition) at 200 ppm in the assay with Plutella xylostella and in the assay with Diabrotica balteata was no less than 80% each time. Also, the percent control (mortality, anti-feedant effect or growth inhibition) at 200 ppm in the assay with Chilo suppressalis and in the assay with Spodoptera littoralis was no less than 80% throughout.

Take `C[C@H](Nc1ncnc2c(Cl)cc(I)cc12)c1ncnn1-c1cnc(C(N)=O)cn1` [Compound P77, 5-[5-[(1S)-1-[(8-chloro-6-iodo-quinazolin-4-yl)amino]ethyl]-1,2,4-triazol-1-yl]pyrazine-2-carboxamide]: in the assay on Plutella xylostella, the percent effect (mortality or growth inhibition) at 200 ppm is no less than 80%. The percent control (mortality, anti-feedant effect or growth inhibition) at 200 ppm with Chilo suppressalis is no less than 80%.

`C[C@H](Nc1ncnc2c(C(F)(F)F)cc(Cl)cc12)c1ncnn1-c1cc(C(=O)NC2(C)CSC2)ncn1` [Compound P45, 6-[5-[(1S)-1-[[6-chloro-8-(trifluoromethyl)quinazolin-4-yl]amino]ethyl]-1,2,4-triazol-1-yl]-N-(3-methylthietan-3-yl)pyrimidine-4-carboxamide]: the percent effect (mortality or growth inhibition) at 200 ppm in the assay with Plutella xylostella and with Diabrotica balteata was no less than 80% each time. Also, the percent control (mortality, anti-feedant effect or growth inhibition) at 200 ppm in the assay with Spodoptera littoralis is no less than 80%.

Turning to `C[C@H](Nc1ncnc2c(C(F)(F)F)cc(Cl)cc12)c1ncnn1-c1cc(C(=O)NC2(C)CS(=O)(=O)C2)ncn1` [Compound P44, 6-[5-[(1S)-1-[[6-chloro-8-(trifluoromethyl)quinazolin-4-yl]amino]ethyl]-1,2,4-triazol-1-yl]-N-(3-methyl-1,1-dioxo-thietan-3-yl)pyrimidine-4-carboxamide], the percent effect (mortality or growth inhibition) at 200 ppm in the assay on Plutella xylostella was no less than 80%.

As to `C[C@H](Nc1ncnc2c(C(F)(F)F)cc(Cl)cc12)c1ncnn1-c1cc(C(=O)N2CCOCC2)ncn1` [Compound P32, [6-[5-[(1S)-1-[[6-chloro-8-(trifluoromethyl)quinazolin-4-yl]amino]ethyl]-1,2,4-triazol-1-yl]pyrimidin-4-yl]-morpholino-methanone], the percent effect (mortality or growth inhibition) at 200 ppm in the assay on Plutella xylostella is no less than 80%. In addition, the percent control (mortality, anti-feedant effect or growth inhibition) at 200 ppm in the assay on Chilo suppressalis and with Spodoptera littoralis was no less than 80% throughout.

For `CCN(C)C(=O)c1cnc(-n2ncnc2[C@H](C)Nc2ncnc3c(C(F)(F)F)cc(Cl)cc23)s1` [Compound P6, 2-[5-[(1S)-1-[[6-chloro-8-(trifluoromethyl)quinazolin-4-yl]amino]ethyl]-1,2,4-triazol-1-yl]-N-ethyl-N-methyl-thiazole-5-carboxamide], the percent effect (mortality or growth inhibition) at 200 ppm with Plutella xylostella is no less than 80%. The percent control (mortality, anti-feedant effect or growth inhibition) at 200 ppm in the assay with Chilo suppressalis and in the assay on Spodoptera littoralis was no less than 80% throughout.

In the case of `C[C@H](Nc1ncnc2c(C(F)(F)F)cc(Cl)cc12)c1ncnn1-c1cc(C(=O)NC2(C#N)CC2)ncn1` [Compound P22, 6-[5-[(1S)-1-[[6-chloro-8-(trifluoromethyl)quinazolin-4-yl]amino]ethyl]-1,2,4-triazol-1-yl]-N-(1-cyanocyclopropyl)pyrimidine-4-carboxamide], the percent effect (mortality or growth inhibition) at 200 ppm in the assay with Plutella xylostella and in the assay on Diabrotica balteata was no less than 80% throughout. The percent control (mortality, anti-feedant effect or growth inhibition) at 200 ppm in the assay on Chilo suppressalis and in the assay with Spodoptera littoralis was no less than 80% each time.

In the case of `C[C@H](Nc1ncnc2c(Cl)cc(I)cc12)c1ncnn1-c1cnc(C(=O)NCC#N)cn1` [Compound P70, 5-[5-[(1S)-1-[(8-chloro-6-iodo-quinazolin-4-yl)amino]ethyl]-1,2,4-triazol-1-yl]-N-(cyanomethyl)pyrazine-2-carboxamide], the percent effect (mortality or growth inhibition) at 200 ppm in the assay with Plutella xylostella is no less than 80%. In addition, the percent control (mortality, anti-feedant effect or growth inhibition) at 200 ppm in the assay with Chilo suppressalis and in the assay with Spodoptera littoralis was no less than 80% throughout.

Regarding `CC(Nc1ncnc2c(C(F)(F)F)cc(Cl)cc12)c1nccnc1-c1cc(C(N)=O)ncn1` (centres unmarked) [Compound P57, 6-[3-[1-[[6-chloro-8-(trifluoromethyl)quinazolin-4-yl]amino]ethyl]pyrazin-2-yl]pyrimidine-4-carboxamide], the percent effect (mortality or growth inhibition) at 200 ppm in the assay with Plutella xylostella and with Diabrotica balteata was no less than 80% in each case. The same compound showed a mortality at 50 ppm in the assay on Chilo suppressalis of 100%. Moreover, the percent control (mortality, anti-feedant effect or growth inhibition) at 200 ppm in the assay on Chilo suppressalis and in the assay on Spodoptera littoralis was no less than 80% each time. The same compound yielded a mortality at 3.12 ppm in the assay with Spodoptera littoralis of 80%.

Compound `CC(Nc1ncnc2c(C(F)(F)F)cc(Cl)cc12)c1nccnc1-c1ncccn1` (centres unmarked) [WO 21/083936 P.130, reference compound] showed a mortality at 50 ppm in the assay with Chilo suppressalis of 0%. The compound further returned a mortality at 3.12 ppm in the assay on Spodoptera littoralis of 0%.

As for `C[C@H](Nc1ncnc2c(C(F)(F)F)cc(Cl)cc12)c1ncnn1-c1ccc(C(N)=O)nn1` [Compound P20, 6-[5-[(1S)-1-[[6-chloro-8-(trifluoromethyl)quinazolin-4-yl]amino]ethyl]-1,2,4-triazol-1-yl]pyridazine-3-carboxamide], the percent effect (mortality or growth inhibition) at 200 ppm with Plutella xylostella and with Diabrotica balteata was no less than 80% throughout. Besides, in the assay on Chilo suppressalis, the percent control (mortality, anti-feedant effect or growth inhibition) at 200 ppm is no less than 80%.

With `CC(Nc1ncnc2c(I)cc(Cl)cc12)c1nccnc1-c1cc(C(N)=O)ncn1` (centres unmarked) [Compound P58, 6-[3-[1-[(6-chloro-8-iodo-quinazolin-4-yl)amino]ethyl]pyrazin-2-yl]pyrimidine-4-carboxamide], the percent effect (mortality or growth inhibition) at 200 ppm in the assay with Plutella xylostella and in the assay on Diabrotica balteata was no less than 80% in each case. Moreover, the percent control (mortality, anti-feedant effect or growth inhibition) at 200 ppm in the assay on Chilo suppressalis and with Spodoptera littoralis was no less than 80% throughout.

Regarding `C[C@H](Nc1ncnc2c(Cl)cc(I)cc12)c1ncnn1-c1ncc(C#N)s1` [WO 22/268648 P20, reference compound], the mortality at 50 ppm in the assay on Spodoptera littoralis (50 ppm) came to 0%.

`CON(C)C(=O)c1cc(-n2ncnc2[C@H](C)Nc2ncnc3c(C(F)(F)F)cc(Cl)cc23)ncn1` [Compound P27, 6-[5-[(1S)-1-[[6-chloro-8-(trifluoromethyl)quinazolin-4-yl]amino]ethyl]-1,2,4-triazol-1-yl]-N-methoxy-N-methyl-pyrimidine-4-carboxamide]: the percent effect (mortality or growth inhibition) at 200 ppm with Plutella xylostella and in the assay with Diabrotica balteata was no less than 80% throughout. Further, the percent control (mortality, anti-feedant effect or growth inhibition) at 200 ppm with Spodoptera littoralis was no less than 80%.

In the case of `C[C@H](Nc1ncnc2c(C(F)(F)F)cc(Cl)cc12)c1ncnn1-c1cc(C(=O)N(C)CC2CC2)ncn1` [Compound P78, 6-[5-[(1S)-1-[[6-chloro-8-(trifluoromethyl)quinazolin-4-yl]amino]ethyl]-1,2,4-triazol-1-yl]-N-(cyclopropylmethyl)-N-methyl-pyrimidine-4-carboxamide], the percent effect (mortality or growth inhibition) at 200 ppm with Plutella xylostella was no less than 80%.
